Data published in PubChem BioAssay AID1918930 (Molecular Pharmacology Branch, DTP, NCI, 2023).

Tested on: 233499-124-R-J3-PDC complex spheroid viability, % test/control
Assay: Anticancer human tumor 233499-124-R-J3-PDC patient-derived colon adenocarcinoma cell line growth inhibition
Settings: for IC50: curve of first compound; for viability, T/C: stronger effect = lower value
Description: Multicellular complex tumor spheroid response to LSD1 Inhibitor Iadademstat in combination with a variety of drugs and investigational agents in selected tumor cell lines
The current study was undertaken to assess response to LSD1 inhibitors in combination with standard-of-care drugs and investigational agents in solid tumor complex spheroid models as well as in the K-562 leukemia. Complex spheroids include a stromal component modeled by human endothelial cells (HUVEC) and fibroblasts modeled by human mesenchymal stem cells (MSCs). The concentration ranges selected for each drug and investigational agent were based upon clinically achievable concentrations if the clinical Cmax of the agent was known.
Compounds. The drugs and investigational agents used in this study are listed on Table 1. All of the agents used, including staurosporine (NSC755774) and gemcitabine (NSC613327), were obtained from the Developmental Therapeutics Program, NCI. FDA-approved anticancer drugs are available from the NCI at http://dtp.nci.nih.gov/branches/dscb/oncology_drugset_explanation.html. Drugs and investigational agents were >95% pure by proton nuclear magnetic resonance (NMR) and liquid chromatography/mass spectrometry (LC/MS). Stock solutions were prepared at 400x in DMSO, stored at -70 degrees C, and diluted in fresh medium prior to their use. The final concentration of DMSO in cell culture wells never exceeded 0.25% (v/v). The FDA-approved anticancer drug set is available from the Developmental Therapeutics Program at https://dtp.cancer.gov/organization/dscb/obtaining/available_plates.htm. All drugs and investigational agents were tested over a range starting from a high concentration at or near the clinical Cmax and decreasing in half-log increments. If the clinical Cmax for an agent had not been determined, the highest concentration tested was 10 microM.
Cell Lines. The patient-derived cancer cell (PDC) lines: 292921-168-R-J2-PDC, K24384-001-R-PDC, and 521955-158-R2-J5-PDC pancreatic carcinomas, 556581-035-R-J1 ovarian carcinoma, 324938-238-R-J1-PDC, 855422-203-R-J1-PDC and 883617-216-R-J1-PDC urothelial bladder carcinomas, 743489-274-T-PDC renal cell carcinoma, 138582-R-J1 Merkel cell tumor, K60290-347-R-J1 and K57222-313-R-J1-PDC glioblastomas, 653999-131-R-J2-PDC, LG0703-F948-PDC, and 349418-098-R-PDC non-small cell lung carcinomas, 885512-296-R-J2-PDC, 171881-019-R-J1-PDC breast carcinomas and 186277-243-T-J2-PDC and 233499-124-R-J2-PDC colon carcinomas were obtained from the NCI Patient-Derived Models Repository (PDMR, https://pdmr.cancer.gov). The established cell lines NCI/ADR-RES (RRID:CVCL_14520 and OVCAR-5 (RRID:CVCL_1628) ovarian carcinomas, 786-O (RRID:CVCL_1051) and A498 (RRID:CVCL_A498) renal cell carcinoma, NCI-H211 (ATCC, cat. CRL-5824; RRID:CVCL_1529), NCI-H196 (ATCC, cat. CRL-5823, RRID:CVCL_1509), SW 1271 (ATCC, cat. CRL-2177, RRID:CVCL_1716) and NCI-H1876 (ATCC, cat. CRL-5902, RRID:CVCL_1503) small cell lung carcinomas, MDA-MB-231 (RRID:CVCL_0062) and MDA-MB-468 (RRID:CVCL_0419)breast carcinomas (10-12). Pooled donor human umbilical vein endothelial cells (HUVEC, Lonza, cat. CC-2519) and human mesenchymal stem cells (hMSC, Lonza, cat. PT-2501) were purchased from Lonza (Walkersville, MD).
Cell Culture. All cells were maintained in an incubator at 37 degrees C and 5% CO2 with 95% humidity. The PDC lines were cultured according to standard operating procedures established by the NCI PDMR (https://pdmr.cancer.gov). Briefly all PDCs were thawed and cultured in Matrigel-coated flasks prepared with a working solution of 1X Ham's F-12 nutrient mix, without supplementation (Invitrogen, Waltham, MA, cat. 11765054), 100 U/mL penicillin-streptomycin (Invitrogen, cat. 15140122), and 2.5% Matrigel (Corning Inc., Corning, NY, cat. 354248) for the first three passages. […]

[1] = second compound 0.1 µM, first compound 0.00316 µM
[2] = second compound 0.1 µM, first compound 0.01 µM
[3] = second compound 0.1 µM, first compound 0.0316 µM
[4] = second compound 0.1 µM, first compound 0.1 µM
[5] = second compound 0.316 µM, first compound 0.00316 µM
[6] = second compound 0.316 µM, first compound 0.01 µM
[7] = second compound 0.316 µM, first compound 0.0316 µM
[8] = second compound 0.316 µM, first compound 0.1 µM
[9] = second compound 1 µM, first compound 0.00316 µM
[10] = second compound 1 µM, first compound 0.01 µM
[11] = second compound 1 µM, first compound 0.0316 µM
[12] = second compound 1 µM, first compound 0.1 µM
[13] = second compound 3.16 µM, first compound 0.00316 µM
[14] = second compound 3.16 µM, first compound 0.01 µM
[15] = second compound 3.16 µM, first compound 0.0316 µM
[16] = second compound 3.16 µM, first compound 0.1 µM
[17] = second compound 10 µM, first compound 0.00316 µM
[18] = second compound 10 µM, first compound 0.01 µM
[19] = second compound 10 µM, first compound 0.0316 µM
[20] = second compound 10 µM, first compound 0.1 µM
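Further: spheroids exposed to agents for one week before readout.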

## CC[C@@]1(O)C(=O)OCc2c1cc1n(c2=O)Cc2cc3c(CN(C)C)c(O)ccc3nc2-1 + NC1CC1c1ccc(-c2cccc(O)c2)cc1
Second compound 0.1 µM
  IC50: > 100 nM
Second compound 0.316 µM
  IC50: > 100 nM
Second compound 1 µM
  IC50: > 100 nM
Second compound 3.16 µM
  IC50: > 100 nM
Second compound 10 µM
  IC50: > 100 nM
Second compound 0.1 µM, first compound 0.000316 µM
  viability, T/C: 109%
Second compound 0.1 µM, first compound 0.001 µM
  viability, T/C: 99%
[1]
  viability, T/C: 81.8%
[2]
  viability, T/C: 52.1%
[3]
  viability, T/C: 73.5%
[4]
  viability, T/C: 115%
Second compound 0.316 µM, first compound 0.000316 µM
  viability, T/C: 96.6%
Second compound 0.316 µM, first compound 0.001 µM
  viability, T/C: 90%
[5]
  viability, T/C: 72.3%
[6]
  viability, T/C: 71.4%
[7]
  viability, T/C: 79.5%
[8]
  viability, T/C: 107%
Second compound 1 µM, first compound 0.000316 µM
  viability, T/C: 86.7%
Second compound 1 µM, first compound 0.001 µM
  viability, T/C: 94%
[9]
  viability, T/C: 62.1%
[10]
  viability, T/C: 67.9%
[11]
  viability, T/C: 57.3%
[12]
  viability, T/C: 104%
Second compound 3.16 µM, first compound 0.000316 µM
  viability, T/C: 89.3%
Second compound 3.16 µM, first compound 0.001 µM
  viability, T/C: 96.3%
[13]
  viability, T/C: 63.6%
[14]
  viability, T/C: 68.3%
[15]
  viability, T/C: 70%
[16]
  viability, T/C: 94.1%
Second compound 10 µM, first compound 0.000316 µM
  viability, T/C: 77.7%
Second compound 10 µM, first compound 0.001 µM
  viability, T/C: 67.9%
[17]
  viability, T/C: 53.8%
[18]
  viability, T/C: 53.6%
[19]
  viability, T/C: 58.7%
[20]
  viability, T/C: 93.5%

## COc1cc(C2c3cc4c(cc3C(OC3OC5COC(C)OC5C(O)C3O)C3COC(=O)C23)OCO4)cc(OC)c1O (stereo not given) + NC1CC1c1ccc(-c2cccc(O)c2)cc1
Second compound 0.1 µM
  IC50: 717 nM
Second compound 0.316 µM
  IC50: 1690 nM
Second compound 1 µM
  IC50: 1540 nM
Second compound 3.16 µM
  IC50: 728 nM
Second compound 10 µM
  IC50: 209 nM
Second compound 0.1 µM, first compound 0.00949 µM
  viability, T/C: 104%
Second compound 0.1 µM, first compound 0.03 µM
  viability, T/C: 101%
Second compound 0.1 µM, first compound 0.0949 µM
  viability, T/C: 86.5%
Second compound 0.1 µM, first compound 0.3 µM
  viability, T/C: 57%
Second compound 0.1 µM, first compound 0.949 µM
  viability, T/C: 51.9%
Second compound 0.1 µM, first compound 3 µM
  viability, T/C: 41.5%
Second compound 0.316 µM, first compound 0.00949 µM
  viability, T/C: 109%
Second compound 0.316 µM, first compound 0.03 µM
  viability, T/C: 113%
Second compound 0.316 µM, first compound 0.0949 µM
  viability, T/C: 94.8%
Second compound 0.316 µM, first compound 0.3 µM
  viability, T/C: 73.4%
Second compound 0.316 µM, first compound 0.949 µM
  viability, T/C: 51.5%
Second compound 0.316 µM, first compound 3 µM
  viability, T/C: 47.8%
Second compound 1 µM, first compound 0.00949 µM
  viability, T/C: 94.3%
Second compound 1 µM, first compound 0.03 µM
  viability, T/C: 82.1%
Second compound 1 µM, first compound 0.0949 µM
  viability, T/C: 73.3%
Second compound 1 µM, first compound 0.3 µM
  viability, T/C: 60.6%
Second compound 1 µM, first compound 0.949 µM
  viability, T/C: 53.7%
Second compound 1 µM, first compound 3 µM
  viability, T/C: 45.5%
Second compound 3.16 µM, first compound 0.00949 µM
  viability, T/C: 91.1%
Second compound 3.16 µM, first compound 0.03 µM
  viability, T/C: 86.2%
Second compound 3.16 µM, first compound 0.0949 µM
  viability, T/C: 73%
Second compound 3.16 µM, first compound 0.3 µM
  viability, T/C: 62.1%
Second compound 3.16 µM, first compound 0.949 µM
  viability, T/C: 42%
Second compound 3.16 µM, first compound 3 µM
  viability, T/C: 46.6%
Second compound 10 µM, first compound 0.00949 µM
  viability, T/C: 71.4%
Second compound 10 µM, first compound 0.03 µM
  viability, T/C: 72.4%
Second compound 10 µM, first compound 0.0949 µM
  viability, T/C: 63.1%
Second compound 10 µM, first compound 0.3 µM
  viability, T/C: 44%
Second compound 10 µM, first compound 0.949 µM
  viability, T/C: 46.5%
Second compound 10 µM, first compound 3 µM
  viability, T/C: 40.6%

## Nc1ncn(C2CC(O)C(CO)O2)c(=O)n1 (stereo not given) + NC1CC1c1ccc(-c2cccc(O)c2)cc1
Second compound 0.1 µM
  IC50: > 1000 nM
Second compound 0.316 µM
  IC50: > 1000 nM
Second compound 1 µM
  IC50: > 1000 nM
Second compound 3.16 µM
  IC50: > 1000 nM
Second compound 10 µM
  IC50: > 1000 nM
[1]
  viability, T/C: 101%
[2]
  viability, T/C: 98.9%
[3]
  viability, T/C: 86.8%
[4]
  viability, T/C: 81.2%
Second compound 0.1 µM, first compound 0.316 µM
  viability, T/C: 89.6%
Second compound 0.1 µM, first compound 1 µM
  viability, T/C: 108%
[5]
  viability, T/C: 120%
[6]
  viability, T/C: 99.5%
[7]
  viability, T/C: 92.2%
[8]
  viability, T/C: 75%
Second compound 0.316 µM, first compound 0.316 µM
  viability, T/C: 96.9%
Second compound 0.316 µM, first compound 1 µM
  viability, T/C: 87.6%
[9]
  viability, T/C: 104%
[10]
  viability, T/C: 89.9%
[11]
  viability, T/C: 72.9%
[12]
  viability, T/C: 83.7%
Second compound 1 µM, first compound 0.316 µM
  viability, T/C: 69.1%
Second compound 1 µM, first compound 1 µM
  viability, T/C: 88.4%
[13]
  viability, T/C: 82.5%
[14]
  viability, T/C: 93.2%
[15]
  viability, T/C: 80.4%
[16]
  viability, T/C: 74.4%
Second compound 3.16 µM, first compound 0.316 µM
  viability, T/C: 74.6%
Second compound 3.16 µM, first compound 1 µM
  viability, T/C: 92%
[17]
  viability, T/C: 80.5%
[18]
  viability, T/C: 83.9%
[19]
  viability, T/C: 80.5%
[20]
  viability, T/C: 60.9%
Second compound 10 µM, first compound 0.316 µM
  viability, T/C: 58.1%
Second compound 10 µM, first compound 1 µM
  viability, T/C: 90.9%
